Here are results for 1 compound from publication PMC12442245, “Activity Analysis of the P2X Receptor Antagonist PPADS against Signal Transducer and Activator of Transcription Proteins” (Chembiochem, 2025).

Format in all cases: binding
One experiment addresses T1, STAT4 (Homo sapiens, UniProt Q14765).
T1 sequence (Q14765 1-748): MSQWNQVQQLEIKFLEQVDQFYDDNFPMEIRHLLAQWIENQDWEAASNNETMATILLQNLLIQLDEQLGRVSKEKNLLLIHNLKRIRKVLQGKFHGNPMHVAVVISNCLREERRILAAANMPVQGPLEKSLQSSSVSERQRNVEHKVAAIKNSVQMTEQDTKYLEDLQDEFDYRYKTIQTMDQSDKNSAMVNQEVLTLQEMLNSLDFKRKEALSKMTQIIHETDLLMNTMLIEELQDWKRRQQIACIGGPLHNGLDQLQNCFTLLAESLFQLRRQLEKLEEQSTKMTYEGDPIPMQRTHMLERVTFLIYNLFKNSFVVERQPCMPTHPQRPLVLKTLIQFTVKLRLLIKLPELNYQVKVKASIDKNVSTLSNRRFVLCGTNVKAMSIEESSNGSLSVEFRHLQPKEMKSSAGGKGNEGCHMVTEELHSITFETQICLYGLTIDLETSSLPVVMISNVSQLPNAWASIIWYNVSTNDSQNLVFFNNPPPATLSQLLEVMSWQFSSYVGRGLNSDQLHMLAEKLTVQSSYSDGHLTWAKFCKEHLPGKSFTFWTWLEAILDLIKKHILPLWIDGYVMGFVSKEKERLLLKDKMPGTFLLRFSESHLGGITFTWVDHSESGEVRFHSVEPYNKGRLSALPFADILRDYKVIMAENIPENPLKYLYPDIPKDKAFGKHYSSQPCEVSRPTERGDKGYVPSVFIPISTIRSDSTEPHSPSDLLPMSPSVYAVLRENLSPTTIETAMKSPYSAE
The experiment in a line: CETSA, STAT4 in total cell lysates from NK-92 cells. The conditions noted are these: NK-92 cell lysates, 100 μM compound. The protocol:
(§1) One method by which binding of small molecules to their expected targets in cell lysates can be inferred is the cellular thermal shift assay (CETSA).^[ [23], [24] ^] This assay is based on the observation that reversible protein binding by a small molecule typically stabilizes the bound protein against thermal denaturation. […]
NK-92 cells (DSMZ) were cultured in α-MEM containing 12.5% fetal bovine serum, 12.5% horse serum, 2 mM L-glutamine, penicillin/streptomycin antibiotics and 50 U/ml human recombinant IL-2 (all reagents from Gibco at Thermo Fisher). […]
whole-cell lysates, cells were harvested by centrifugation, washed once with ice-cold PBS and resuspended at 3 x 10^6 cells per 100 µl in TBS supplemented with EDTA-free Halt Protease Inhibitor Cocktail (Fisher Scientific). […]
(§2) CETSA experiments were performed based on the published protocol.[8] […] The soluble fractions were analyzed by Western blotting.
(§3) Treated lysates were separated by SDS-PAGE on a 10% gel and transferred to nitrocellulose membrane using a TransBlot semi-dry blotting protocol (Bio-Rad Laboratories). Proteins of interest were detected using monoclonal rabbit primary antibodies (Cell Signaling), anti-rabbit-HRP-secondary antibody (Dako) and Pierce ECL Plus chemiluminescence reagent (Thermo Fisher). Bands were visualized using an ImageQuant system (GE Healthcare) and quantitated with ImageJ software (NIH).[9]

Another experiment has as its target STAT3 (Homo sapiens, UniProt P40763). The experiment in a line: CETSA, STAT3 in total cell lysates from NK-92 cells. Details: the endogenous full‐length proteins (between 748 and 793 amino acids for STAT3/4/5a/5b); endogenous in cells; host or cells: NK-92 cells (DSMZ), whole-cell lysate. The conditions noted are these: NK-92 cell lysates, 100 μM.
Description: STAT3 was again chosen as a specificity control for CETSA analysis, because it had already been used as control in HTRF assays (Figure 2B), and because we had previously developed CETSA for STAT3 in NK‐92 lysates.^[ [11] ^] […] The relatively low thermal shifts obtained even with the high‐affinity control peptides are consistent with the fact that the SH2 domain of STATs only comprises a small proportion (≈100 amino acids) of the endogenous full‐length proteins (between 748 and 793 amino acids for STAT3/4/5a/5b).^[ [25] ^] […] The CETSA experiments were carried out in cell lysates, not in living cells, to account for the putative inability of PPADS and iso‐PPADS to cross the cell membrane owing to their large number of negative charges. […]
as §2, §3

Experiment [1] deals with total STAT5 (STAT5a and STAT5b). In words: CETSA, total STAT5 in lysates from K562 cells. The conditions noted are these: K562 cell lysates, 100 μM. Here is the method: as §1
K562 cells (DSMZ) were cultured […]
in RPMI 1640 medium containing 10% FBS, 2 mM L-glutamine and penicillin/streptomycin. For whole-cell lysates, cells were harvested by centrifugation, washed once with ice-cold PBS and resuspended at 3 x 10^6 cells per 100 µl in TBS supplemented with EDTA-free Halt Protease Inhibitor Cocktail (Fisher Scientific). Cells were lysed using three freeze-thaw cycles using liquid nitrogen and a room-temperature water bath. […]
as §2, §3

“And” between values parts separate entries of the source, which are not always exact repeats. Equal entries are not always repeated.

STAT3, sequence (P40763 whole entry, species assumed, the tested form may be a part): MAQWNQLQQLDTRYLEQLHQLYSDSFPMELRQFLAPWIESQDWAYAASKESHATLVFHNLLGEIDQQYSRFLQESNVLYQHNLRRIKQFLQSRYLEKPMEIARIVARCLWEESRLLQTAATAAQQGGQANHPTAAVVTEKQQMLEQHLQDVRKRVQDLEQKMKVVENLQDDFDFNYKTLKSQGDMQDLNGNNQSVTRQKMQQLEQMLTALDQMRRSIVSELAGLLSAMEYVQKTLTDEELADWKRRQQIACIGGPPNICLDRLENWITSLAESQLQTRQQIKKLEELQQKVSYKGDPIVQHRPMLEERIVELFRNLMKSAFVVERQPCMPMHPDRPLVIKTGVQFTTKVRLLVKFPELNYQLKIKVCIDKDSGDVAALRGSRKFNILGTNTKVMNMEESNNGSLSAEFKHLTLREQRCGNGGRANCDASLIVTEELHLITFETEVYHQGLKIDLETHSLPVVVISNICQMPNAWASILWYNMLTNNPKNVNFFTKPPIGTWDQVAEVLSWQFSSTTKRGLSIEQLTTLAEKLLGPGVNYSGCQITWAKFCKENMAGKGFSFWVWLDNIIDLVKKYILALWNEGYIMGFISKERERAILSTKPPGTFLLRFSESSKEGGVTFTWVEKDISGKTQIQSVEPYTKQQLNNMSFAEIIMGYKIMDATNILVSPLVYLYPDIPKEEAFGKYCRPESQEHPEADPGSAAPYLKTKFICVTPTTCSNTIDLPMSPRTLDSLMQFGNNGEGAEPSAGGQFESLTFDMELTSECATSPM

`Cc1nc(/N=N/c2ccc(S(=O)(=O)O)cc2S(=O)(=O)O)c(COP(=O)(O)O)c(C=O)c1O` [PPADS, pyridoxalphosphate‐6‐azophenyl‐2',4'‐disulfonic acid]: on STAT4, the “increase of the aggregation temperature of STAT4 (ΔT agg)” value was 1.1 °C. The “aggregation temperature of STAT4 (T agg)” value at STAT4 (DMSO control 48.9 ± 0.4 °C) is 50.0 ± 0.4 °C and 50.0 °C. For the same compound, the “increase of the aggregation temperature of STAT3 (ΔT agg)” value at STAT3 stood at 0.57 °C. Moreover, the “aggregation temperature of STAT3 (T agg)” value on STAT3 (DMSO control 51.47 °C) came to 52.04 °C. In addition, the “ΔT agg of total STAT5” value in experiment [1] came out at 2.7 °C. In addition, the “aggregation temperature of total STAT5 (T agg)” value in experiment [1] (DMSO control 49.0 °C) was 51.7 °C.
